Key:
[1] = Solubility of the isolated salt in water (remark in the preparation examples); assay type: physicochemical; conditions: hydrochloride / dihydrochloride salt
alpha1 adrenoceptors = target: T1, alpha1 adrenoceptors (Rattus norvegicus, UniProt P15823); assay: Affinity for alpha1 adrenoceptors: displacement of tritiated prazosin on rat cardiac membranes; assay type: binding; conditions: Ki from IC50 by Cheng and Prusoff, read-out: Inhibition constants at alpha-1-adrenoceptor (Ki)
T1 construct: from tissue; host or cells: rat cardiac membranes
T1 sequence (P15823 1-515): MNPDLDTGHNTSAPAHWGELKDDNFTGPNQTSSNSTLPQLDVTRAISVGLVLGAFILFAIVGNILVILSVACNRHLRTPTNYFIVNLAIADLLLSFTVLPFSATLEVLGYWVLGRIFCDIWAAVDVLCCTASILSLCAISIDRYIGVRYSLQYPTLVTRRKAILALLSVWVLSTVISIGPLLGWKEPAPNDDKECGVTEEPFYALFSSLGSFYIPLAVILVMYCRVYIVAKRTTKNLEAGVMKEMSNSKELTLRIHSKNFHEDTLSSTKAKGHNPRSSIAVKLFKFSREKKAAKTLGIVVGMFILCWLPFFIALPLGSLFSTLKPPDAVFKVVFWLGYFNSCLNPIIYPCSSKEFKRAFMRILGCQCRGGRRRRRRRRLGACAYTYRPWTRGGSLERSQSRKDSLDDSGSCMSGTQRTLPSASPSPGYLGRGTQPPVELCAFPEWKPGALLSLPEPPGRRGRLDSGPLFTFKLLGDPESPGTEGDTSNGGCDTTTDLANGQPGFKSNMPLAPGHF
Method: The affinity of compounds of the general formula I for alpha1 adrenoceptors was established using the method described by R. S. Williams, D. F. Dukes and […] in J. Cardiovasc. Pharmacol. 3, 522-531 (1981). In this method the competitive displacement of tritiated prazosin (2-(4-(2-furoyl)-1-piperazinyl)-4-amino-6,7-dimethoxy-quinazoline) on rat-cardiac membranes by the test substances is measured, and the IC50 (50% inhibition concentration) is determined as that concentration which brings about a 50% inhibition of the specific binding of tritiated prazosin to the alpha1 adrenoceptors in rat cardiac membranes.
The concentration-independent inhibitor constants K1 -alpha1 were determined from the IC50 values as stated by Y. Cheng and H. W.Prusoff in Biochem. Pharmacol. 22, 3099-3108 (1973).

5-HT-1A receptors = target: T2, 5-HT-1A receptors (Rattus norvegicus, UniProt P19327); assay: Affinity for 5-HT-1A receptors: displacement of tritiated 8-OH-DPAT on rat brain membranes; assay type: binding; conditions: Ki from IC50 by Cheng and Prusoff, read-out: Inhibition constants at 5-HT1A-receptor (Ki)
T2 construct: 5-HT-1A receptors in rat brain membranes; from tissue; host or cells: rat brain membranes
T2 sequence (P19327 1-422): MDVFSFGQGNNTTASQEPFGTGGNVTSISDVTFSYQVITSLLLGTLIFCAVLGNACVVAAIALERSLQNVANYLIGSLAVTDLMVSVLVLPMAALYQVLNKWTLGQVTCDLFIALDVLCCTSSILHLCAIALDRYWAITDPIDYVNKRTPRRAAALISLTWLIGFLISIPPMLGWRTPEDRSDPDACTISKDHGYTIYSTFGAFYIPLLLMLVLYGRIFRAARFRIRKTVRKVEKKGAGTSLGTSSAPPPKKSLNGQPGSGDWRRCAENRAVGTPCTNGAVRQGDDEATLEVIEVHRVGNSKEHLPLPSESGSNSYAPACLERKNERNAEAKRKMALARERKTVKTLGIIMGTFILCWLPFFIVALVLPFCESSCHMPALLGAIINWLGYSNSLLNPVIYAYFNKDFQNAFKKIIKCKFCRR
Method: The affinity of compounds of the general formula I for 5-HT-1A receptors was determined by the method described by H. Gozlan, S. Elmestikawy, L. Pichat, J. Glowinski and M. Hamon in Nature 305, 140-142 (1983). In this method the competitive displacement of tritiated 8-OH-DPAT (8-hydroxy-(di-n-propylamino)tetralin) on rat brain membranes by the test substances is measured, and the IC50 (50% inhibition concentration) is determined as that concentration which brings about a 50% inhibition of the specific binding of tritiated 8-OH-DPAT to 5-HT-1A receptors in rat brain membranes.
The concentration-independent inhibitor constants K1 -alpha1 and K1 -5HT-1A were determined from the IC50 values as stated by Y. Cheng and H. W. Prusoff in Biochem. Pharmacol. 22, 3099-3108 (1973).

| Compound | solubility in water [1] | Ki (alpha1 adrenoceptors) | Ki (5-HT-1A receptors) |
| --- | --- | --- | --- |
| CC(C)(C)n1ncc(NCCN2CCN(c3cccc(C(F)(F)F)c3)CC2)c(Cl)c1=O | readily soluble in water |  |  |
| CC(C)(C)n1ncc(Cl)c(NCCN2CCN(c3cccc(C(F)(F)F)c3)CC2)c1=O | readily soluble in water |  |  |
| COc1cc(C)ccc1N1CCN(CCNc2cnn(C)c(=O)c2Cl)CC1 [2-Methyl-4-chloro-5-((2-(4-(2-methoxy-4-methylphenyl)piperazinyl-1)ethyl)amino)-3(2H)-pyridazinone] |  | 31.4 nM | 478 nM |
| Cn1ncc(NCCN2CCN(c3cccc(C(F)(F)F)c3)CC2)c(Cl)c1=O [2-Methyl-4-chloro-5-((2-(4-(3-trifluoromethylphenyl)piperazinyl-1)ethyl)amino-3(2H)-pyridazinone] |  | 94.2 nM | 28.5 nM |
| Cn1ncc(NCCN2CCN(c3ccccc3)CC2)c(Cl)c1=O [2-Methyl-4-chloro-5-((2-(4-phenylpiperazinyl-1)ethyl)amino)-3(2H)-pyridazinone] |  | 4.05 nM | 106 nM |
| Cn1ncc(Cl)c(NCCN2CCN(c3ccccc3)CC2)c1=O [2-Methyl-5-chloro-4-((2-(4-phenylpiperazinyl-1)ethyl)amino)-3(2H)-pyridazinone] |  | 86.7 nM | 519 nM |
| COc1ccccc1N1CCN(CCNc2cc(Cl)nn(C)c2=O)CC1 [2-Methyl-6-chloro-4-((2-(4-(2-methoxyphenyl)piperazinyl-1)ethyl)amino)-3(2H)-pyridazinone] |  | 5.63 nM | 28.4 nM |
| COc1ccccc1N1CCN(CCNc2cnn(C)c(=O)c2Br)CC1 [2-methyl-4-bromo-5-((2-(4-(2-methoxyphenyl)-1-piperazinyl)ethyl)amino)-3(2H)-pyridazinone] |  | 5.88 nM | 33.6 nM |
| COc1ccccc1N1CCN(CCNc2cnn(C)c(=O)c2Cl)CC1 [2-methyl-4-chloro-5-((2-(4-(2-methoxyphenyl)-1-piperazinyl)ethyl)amino)-3(2H)-pyridazinone] |  | 7.57 nM | 63.2 nM |
| COc1ccccc1N1CCN(CCNc2cnn(C(C)(C)C)c(=O)c2Cl)CC1 [2-t-Butyl-4-chloro-5-((2-(4-(2-methoxyphenyl)piperazinyl-1)ethyl)amino)-3(2H)-pyridazinone] |  | 12.8 nM | 39.4 nM |
| COc1ccccc1N1CCN(CCNc2c(Cl)cnn(C(C)(C)C)c2=O)CC1 [2-t-Butyl-5-chloro-4-((2-(4-(2-methoxyphenyl)piperazinyl-1)ethyl)amino)-3(2H)-pyridazinone] |  | 42.2 nM | 9.45 nM |
| COc1ccccc1N1CCN(CCNc2cn[nH]c(=O)c2Cl)CC1 [4-Chloro-5-((2-(4-(2-methoxyphenyl)-1-piperazinyl)ethyl)amino)-3(2H)-pyridazinone] |  | 5.43 nM | 27 nM |
| COc1ccccc1N1CCN(CCNc2c(OC)cnn(C)c2=O)CC1 [5-Methoxy-2-methyl-4-((2-(4-(2-methoxyphenyl)-1-piperazinyl)ethyl)amino)-3(2H)-pyridazinone] |  | 7.83 nM | 90.8 nM |
| COc1ccccc1N1CCN(CCCNc2cc(=O)n(C)c(=O)n2C)CC1 [URAPIDIL, reference compound] |  | 110 nM | 93.1 nM |

Further compounds by falling Ki (alpha1 adrenoceptors), results first:

| solubility in water [1] | Ki (alpha1 adrenoceptors) | Ki (5-HT-1A receptors) | Compound |
| --- | --- | --- | --- |
|  | 207 nM | 814 nM | COc1cc(C)ccc1N1CCN(CCNc2cnn(C)c(=O)c2)CC1 [2-Methyl-5-((2-(4-(2-methoxy-4-methylphenyl)piperazinyl-1)ethyl)amino)-3(2H)-pyridazinone] |
|  | 190 nM | 43.6 nM | COc1ccccc1N1CCN(CCNc2cnn(C)c(=O)c2)CC1 [2-Methyl-5-((2-(4-(2-methoxyphenyl)-1-piperazinyl)ethyl)amino)-3(2H)-pyridazinone] |
|  | 157 nM | 274 nM | Cn1ncc(NCCN2CCN(c3ccccc3)CC2)cc1=O [2-Methyl-5-((2-(4-phenylpiperazinyl-1)ethyl)amino)-3(2H)-pyridazinone] |
|  | 82.6 nM | 523 nM | COc1ccc(C)cc1N1CCN(CCNc2cnn(C)c(=O)c2)CC1 [2-Methyl-5-((2-(4-(2-methoxy-5-methylphenyl)piperazinyl-1)ethyl)amino)-3(2H)-pyridazinone] |
|  | 47.3 nM | 8.31 nM | Cn1ncc(Cl)c(NCCN2CCN(c3cccc(C(F)(F)F)c3)CC2)c1=O [2-Methyl-5-chloro-4-((2-(4-(3-trifluoromethylphenyl)piperazinyl-1)ethyl)amino-3(2H)-pyridazinone] |
|  | 32.2 nM | 50.7 nM | COc1ccccc1N1CCN(CCCNc2cnn(C)c(=O)c2Cl)CC1 [2-Methyl-4-chloro-5-((3-(4-(2-methoxyphenyl)-1-piperazinyl)propyl)amino)-3(2H)-pyridazinone] |
|  | 22.4 nM | 126 nM | COc1cc(C)ccc1N1CCN(CCNc2c(Cl)cnn(C)c2=O)CC1 [2-Methyl-5-chloro-4-((2-(4-(2-methoxy-4-methylphenyl)piperazinyl-1)ethyl)amino)-3(2H)-pyridazinone] |
|  | 20.6 nM | 24.2 nM | CCN(CCN1CCN(c2ccccc2OC)CC1)c1cnn(C)c(=O)c1 [2-Methyl-5-(ethyl-(2-(4-(2-methoxyphenyl)piperazinyl-1)ethyl)amino)-3(2H)-pyridazinone] |
|  | 11 nM | 46.6 nM | COc1ccccc1N1CCN(CCCNc2cc(Cl)nn(C)c2=O)CC1 [2-Methyl-6-chloro-4-((3-(4-(2-methoxyphenyl)-1-piperazinyl)propyl)amino)-3(2H)-pyridazinone] |
|  | 6.98 nM | 510 nM | COc1ccc(C)cc1N1CCN(CCNc2cnn(C)c(=O)c2Cl)CC1 [2-Methyl-4-chloro-5-((2-(4-(2-methoxy-5-methylphenyl)piperazinyl-1)ethyl)amino)-3(2H)-pyridazinone] |
|  | 6.03 nM | 65.8 nM | COc1ccccc1N1CCN(CCNc2cnn(C(C)(C)C)c(=O)c2)CC1 [2-t-Butyl-5-((2-(4-(2-methoxyphenyl)piperazinyl-1)ethyl)amino)-3(2H)-pyridazinone] |
|  | 6.01 nM | 85.1 nM | COc1ccc(C)cc1N1CCN(CCNc2c(Cl)cnn(C)c2=O)CC1 [2-Methyl-5-chloro-4-((2-(4-(2-methoxy-5-methylphenyl)piperazinyl-1)ethyl)amino)-3(2H)-pyridazinone] |
|  | 4.48 nM | 75.8 nM | COc1ccccc1N1CCN(CCNc2cnn(-c3ccccc3)c(=O)c2Cl)CC1 [2-Phenyl-4-chloro-5-((2-(4-(2-methoxyphenyl)piperazinyl-1)ethyl)amino)-3(2H)-pyridazinone] |
|  | 3.48 nM | 1.4 nM | COc1ccccc1N1CCN(CCCNc2c(Cl)cnn(C)c2=O)CC1 [2-methyl-5-chloro-4-((3-(4-(2-methoxyphenyl)-1-piperazinyl)propyl)amino)-3(2H)-pyridazinone] |
|  | 2.51 nM | 80.8 nM | Cn1ncc(Cl)c(NCCN2CCN(c3ccccc3F)CC2)c1=O [2-Methyl-5-chloro-4-((2-(4-(2-fluorophenyl)piperazinyl-1)ethyl)amino-3(2H)-pyridazinone] |
|  | 1.5 nM | 16.6 nM | COc1ccccc1N1CCN(CCNc2c(Cl)cnn(C)c2=O)CC1 [2-Methyl-5-chloro-4-((2-(4-(2-methoxyphenyl)-1-piperazinyl)ethyl)amino)-3(2H)-pyridazinone] |
|  | 1.33 nM | 16.2 nM | COc1ccccc1N1CCN(CCNc2c(Br)cnn(C)c2=O)CC1 [2-Methyl-5-bromo-4-((2-(4-(2-methoxyphenyl)-1-piperazinyl)ethyl)amino)-3(2H)-pyridazinone] |
